SMILES strings stand for the structures. Counter-ions that a name gives are not always drawn. Like-named read-outs stand apart in the source and are kept apart here.

Assay [1] concerns E. coli S30 extract (bacterial protein synthesis). As to the kind of experiment: E. coli S30 extract coupled transcription-translation luciferase assay (inhibition of bacterial protein synthesis). It counts as biochemical. The conditions noted are these: read-out: S30 IC50 (μM/% inhib.). The protocol: E. coli S30 extract: Inhibition of bacterial protein synthesis was determined using the E. coli S30 Extract System for Circular DNA (Promega catalog #L-2010) and Luciferase Assay Reagent (Promega catalog #E1500) with slight modifications to a published protocol. Fyfe, C., Sutcliffe, J. A. and Grossman, T. H. (2012) “Development and characterization of a Pseudomonas aeruginosa in vitro coupled transcription-translation assay system for evaluation of translation inhibitors” J. Microbiol. Methods 90(3), 256-261.
Compounds were serial diluted in 0.5 mL microcentrifuge tubes by mixing and transferring 50 μL from the highest concentration to 50 μL of water, mixing and transferring 50 μL of this 2-fold dilution to 50 μL of water. This mixing and transferring was repeated so that there are a total of 8 tubes with serial dilutions of compound at 10× the desired screening concentration that are ultimately diluted to 1× by the addition of S30 luciferase synthesis mixture. Serial dilutions of compounds were added (2 μL) to wells in a black round bottom 96-well plate. Water (2 μL) was used as a “no inhibitor” control in 4 wells/plate. No DNA control reaction mixture (20 μL; see below) was used as a control in 4 wells/plate for background luminescence. S30 luciferase synthesis mixture (18 μL; see below) was added to wells with compounds or water mixture and incubated at 37° C. for 1 hour. Reactions were stopped by transferring to 4° C. refrigerator for 5 minutes then 25 μL of luciferase activity mix was added. Luminescence was measured using a BioTek Synergy HTX plate reader. % Inhibition was determined relative to no inhibitor controls.
S30 luciferase synthesis mixture:
• 445 μL S30 extract, circular • 712 μL S30 Premix without amino acids • 4.45 μL pBESTluc™ DNA (1 μg/μL) • 78 μL complete amino acid mixture • 267 μL water No DNA control: • 20 μL S30 extract, circular • 32 μL S30 Premix without amino acids • 7 μL complete amino acid mixture • 21 μL water Rabbit Reticulocyte lysate

The target in assay [2] is Rabbit Reticulocyte Lysate (eukaryotic protein synthesis). As to the kind of experiment: Rabbit reticulocyte lysate luciferase assay (inhibition of eukaryotic protein synthesis). It counts as biochemical. As to conditions: read-out: Rabbit reticulocyte IC50 (μM/% inhib.). As to the method:
Inhibition of eukaryotic protein synthesis was determined using the Rabbit Reticulocyte Lysate System, Nuclease-Treated from Promega (catalog #L-4960) with slight modifications to the manufacturer's protocol. Compounds were serial diluted in 0.5 mL microcentrifuge tubes by mixing and transferring 50 μL from the highest concentration to 50 μL of water, mixing and transferring 50 μL of this 2-fold dilution to 50 μL of water. This mixing and transferring was repeated so that there are a total of 8 tubes with serial dilutions of compound at 10× the desired screening concentration that are ultimately diluted to 1× by the addition of rabbit reticulocyte luciferase synthesis mixture. Serial dilutions of compounds were added ([…]) to wells in a black round bottom 96-well plate. Water (2.5 μL) was used as a “no inhibitor” control in 4 wells/plate. No RNA control reaction mixture ([…]; see below) was used as a control in 4 wells/plate for background luminescence. Rabbit reticulocyte luciferase synthesis mixture (22.5 μL; see below) was added to wells with compounds or water mixture and incubated at 30° C. for 90 minutes. Luciferase assay reagent (25 μL) was added with luminescence measured using a BioTek Synergy HTX plate reader. % Inhibition was determined relative to no inhibitor controls.
Rabbit reticulocyte luciferase synthesis mixture:
• 1,000 μL rabbit reticulocyte lysate • 5.7 μL Luciferase Control RNA (1 μg/μL) • 26 μL complete amino acid mixture • 395 μL water No RNA Control • 70 μL rabbit reticulocyte lysate • 2 μL complete amino acid mixture • 28 μL water Minimum Inhibitory Concentration (MIC)

The test system of assay [3] is E. coli (Ec). As to the kind of experiment: Broth microdilution minimum inhibitory concentration (MIC). It counts as cell-based. The conditions noted are these: Escherichia coli, E. coli; growth medium supplemented with sodium bicarbonate; read-out: E. coli + bicarb MIC. The protocol:
A certified BSL-2 laboratory was used for testing. Compounds were evaluated using the broth microdilution minimum inhibitory concentration (MIC) and minimum bactericidal concentration (MBC) assays defined by Clinical and Laboratory Standards Institute (CLSI) in the M26-A guideline against S. aureus (Sa), E. coli (Ec), K. pneumoniae (Kp), A. baumannii (Ab), E. faecalis (Ef) and P. aeruginosa (Pa).
MICs were determined using the Clinical Laboratory and Standards Institute (CLSI) Broth Microdilution Method with slight modification. Clinical and Laboratory Standards Institute (2012). “Methods for dilution antimicrobial susceptibility tests for bacteria that grow aerobically; approved standard, 9th ed. M07-A9. Clinical and Laboratory Standards Institute, Wayne, PA” Serial two-fold dilutions of compounds are prepared in sterile clear round-bottom 96-well plates.
To prepare microdilution trays, two-fold dilutions of antimicrobial agent are prepared in growth medium: Cation-Adjusted Mueller-Hinton Broth (CAMHB), or CAMHB supplemented with sodium bicarbonate (6.25 or 25 mM final concentration prepared from a 1.0M stock solution) or CAMHB supplemented with heat inactivated human serum (Fisher Cat. #BP2657100) 0-50% by adding 200 μL of the highest concentration to be tested (64 μg/mL, for example) in row A, mixing and transferring 100 μL from row A to 100 μL growth medium in row B, then repeating the mixing and transferring through row H of the 96-well plate, discarding the excess 100 μL remaining. This slight modification to the CLSI protocol enables evaluation of MICs for 3 compounds per plate in triplicate, albeit with only 8 compound dilutions (CLSI protocol enables 2 compounds in triplicate with 10 dilutions). Bacterial suspensions are added to a final concentration of 5×10^4 CFU/well by adding 5 μL of a 1:10 dilution of a 0.5 McFarland suspension (1×10^8 CFU/mL) for each bacterium evaluated. Bacterial suspensions were prepared using the growth method described by CLSI. Well-isolated colonies (3-5 from an agar plate) were selected using a sterile loop and used to inoculate a tube containing 4 mL of CAMHB. The cultures are incubated at 35±2° C. until it achieves or exceeds the turbidity of the 0.5 McFarland standard, determined by measuring A600nm (usually two to six hours). When growth exceeds a 0.5 McFarland standard, the turbidity is adjusted with broth to be equivalent to a 0.5 McFarland standard.
A general note: Dilution methods test growth across graded concentrations, often in twofold steps.

Where [4] appears, read: class by IC50 or % inhibition @ 1 μM.

Consider `CCC1CN(C(=O)Nc2ccn(-c3ccc(CN4CCC(N)CC4)cc3)c(=O)n2)CCN1C(=O)C(C)(C)N` (centres unmarked) [Compound 78], for which the IC50 in assay [1] (setting [4]) and in assay [2] (setting [4]) was > 1 µM each time.

On to `CC(C)(N)C(=O)N1C[C@@H]2CC1CN2C(=O)Nc1ccn(-c2ccc(CN3CCC(N)CC3)cc2)c(=O)n1` [Compound 80], for which the results for the IC50 in assay [1] (setting [4]) and in assay [2] (setting [4]) were 0.5 to 1 µM and > 1 µM, respectively.

With `CC(C)(N)C(=O)N1CCN(C(=O)Nc2ccn(-c3ccc(CN4CCC(N)CC4)cc3)c(=O)n2)C[C@H]1C(=O)O` [Compound 81], the IC50 in assay [1] (setting [4]) and in assay [2] (setting [4]) was > 1 µM in each case.

Take `CC[C@H]1CN(C(=O)C(C)(C)N)CCN1C(=O)Nc1ccn(-c2ccc(CN3CCC(N)CC3)cc2)c(=O)n1` [Compound 83]: the IC50 in assay [1] (setting [4]) and in assay [2] (setting [4]) was > 1 µM each time.

On to `CC[C@@H]1CN(C(=O)C(C)(C)N)CCN1C(=O)Nc1ccn(-c2ccc(CN3CCC(N)CC3)cc2)c(=O)n1` [Compound 84], for which the IC50 in assay [1] (setting [4]) and in assay [2] (setting [4]) was > 1 µM each time.

`CC(C)(N)C(=O)N1CCCC2C1CCCN2C(=O)Nc1ccn(-c2ccc(CN3CCC(N)CC3)cc2)c(=O)n1` (centres unmarked) [Compound 86]: the IC50 in assay [1] (setting [4]) and in assay [2] (setting [4]) was > 1 µM throughout.

As for `CC(C)(N)C(=O)N1CC2CCC1CN2C(=O)Nc1ccn(-c2ccc(CN3CCC(N)CC3)cc2)c(=O)n1` (centres unmarked) [Compound 87], the IC50 in assay [1] (setting [4]) and in assay [2] (setting [4]) was > 1 µM throughout.

Regarding `C[C@@H]1CN(C(=O)C(C)(C)N)[C@H](C)CN1C(=O)Nc1ccn(-c2ccc(CN3CCC(N)CC3)cc2)c(=O)n1` [Compound 88], the IC50 in assay [1] (setting [4]) and in assay [2] (setting [4]) was > 1 µM each time.

For the compound `CCOC(=O)C(c1ccc(-n2ccc(NC(=O)N3CCN(C(=O)C(C)(C)N)CC3)nc2=O)cc1)N1CCC(N)CC1` (centres unmarked) [Compound 92], in assay [1] (setting [4]), the IC50 was > 1 µM. The MIC (usually the smallest concentration in the dilution series that meets the test's criterion for growth inhibition) in assay [3] was > 32 µg/mL.

As for `Cc1cc(-n2ccc(NC(=O)N3CCN(C(=O)CC(C)(C)N)CC3)nc2=O)ccc1CN1CCC(N)CC1` [Compound 94], the IC50 in assay [1] (setting [4]) and in assay [2] (setting [4]) was > 1 µM throughout.

As for `C[C@H](N)C(=O)NC1CCN(Cc2ccc(-n3ccc(NC(=O)N4CCN(C(=O)[C@@](C)(N)CO)CC4)nc3=O)cc2)CC1` [Compound 100], the values for the IC50 in assay [1] (setting [4]) and in assay [2] (setting [4]) were 0.5 to 1 µM and > 1 µM, respectively.

For `Cc1cc(-n2ccc(NC(=O)N3CCN(C(=O)C(C)(N)CO)CC3)nc2=O)ccc1CN1CCC(N)CC1` (centres unmarked) [Compound 101], the IC50 in assay [1] (setting [4]) was 0.5 to 1 µM; in assay [2] (setting [4]), > 1 µM.

With `CC(C)(N)C(=O)N1CCN(C(=O)Nc2ccn(-c3cccc(CN4CCC(NC(=N)N)CC4)c3)c(=O)n2)CC1` [Compound 102], the IC50 in assay [1] (setting [4]) and in assay [2] (setting [4]) was > 1 µM throughout.

Regarding `Cc1cc(-n2ccc(NC(=O)N3CCN(C(=O)C(C)(C)N)CC3)nc2=O)ccc1CN1CCC(NC(=N)N)CC1` [Compound 104], the IC50 is < 0.5 µM in assay [1] (setting [4]) and > 1 µM in assay [2] (setting [4]).

Regarding `CC(C)(N)C(=O)N1CCN(C(=O)Nc2ccn(-c3ccc(CN4CCC(NC(=N)N)CC4)cc3)c(=O)n2)CC1` [Compound 105], the IC50 in assay [1] (setting [4]) and in assay [2] (setting [4]) was < 0.5 µM in each case.

As for `CC(C)(N)CC(=O)N1CCN(C(=O)Nc2ccn(-c3ccc(CN4CCC(N)CC4)c(C(F)(F)F)c3)c(=O)n2)CC1` [Compound 106], the IC50 in assay [1] (setting [4]) and in assay [2] (setting [4]) was > 1 µM in each case.

For the compound `CC(C)(N)C(=O)N1CCN(C(=O)Nc2ccn(-c3ccc(CN4CCC(C(F)(F)F)CC4)cc3)c(=O)n2)CC1` [Compound 107], the IC50 in assay [1] (setting [4]) and in assay [2] (setting [4]) was > 1 µM each time.

With `CC(C)(N)C(=O)N1CCN(C(=O)Nc2ccn(-c3ccc(CN4CCOC(CN)C4)cc3)c(=O)n2)CC1` (centres unmarked) [Compound 135], the IC50 in assay [1] (setting [4]) and in assay [2] (setting [4]) was > 1 µM throughout.

Turning to `CC(C)(N)C(=O)N1CCN(C(=O)Nc2ccn(-c3ccc(CC[N+]4(C)CCC(N)CC4)cc3)c(=O)n2)CC1` (centres unmarked) [Compound 196], the IC50 was < 0.5 µM in assay [1] (setting [4]) and > 1 µM in assay [2] (setting [4]).

Consider `C[C@H](N)C1CCN(Cc2ccc(-n3ccc(NC(=O)N4CCN(C(=O)C(C)(C)N)[C@H](C)C4)nc3=O)cc2)CC1` [Compound 206], for which the IC50 in assay [1] (setting [4]) and in assay [2] (setting [4]) was > 1 µM each time.

Regarding `C[C@H](N)C1CCN(Cc2ccc(-n3ccc(NC(=O)N4CCN(C(=O)[C@@](C)(N)CO)C[C@H]4C)nc3=O)cc2)CC1` [Compound 207], the IC50 in assay [1] (setting [4]) and in assay [2] (setting [4]) was > 1 µM each time.

Take `CC(C)(N)C(=O)N1CCN(Cc2ccc(-n3ccc(NC(=O)N4CCN(C(=O)C(C)(C)N)CC4)nc3=O)cc2)CC1` [Compound 225]: the IC50 in assay [1] (setting [4]) and in assay [2] (setting [4]) was > 1 µM in each case.

For the compound `CC1(N)CCN(Cc2ccc(-n3ccc(NC(=O)N4CCN(C(=O)[C@@](C)(N)CO)CC4)nc3=O)cc2Cl)CC1` [Compound 360], the values for the IC50 in assay [1] (% inhibition @ 1 μM) and in assay [2] (% inhibition @ 1 μM) were < 0.5 µM and > 1 µM, respectively.

`CC(C)(N)CC(=O)N1CCN(C(=O)Nc2ccn(-c3cccc(CN4CCC(N)CC4)c3)c(=O)n2)CC1` [Compound 362]: the IC50 in assay [1] (% inhibition @ 1 μM) and in assay [2] (% inhibition @ 1 μM) was > 1 µM in each case.

In the case of `CC(C)(N)CC(=O)N1CCN(C(=O)Nc2ccn(-c3cccc(CN4CCC(C)(N)CC4)c3)c(=O)n2)CC1` [Compound 363, hydrochloride salt], the IC50 in assay [1] (% inhibition @ 1 μM) and in assay [2] (% inhibition @ 1 μM) was > 1 µM each time.

Regarding `CC(C)[C@H](N)C(=O)NC(C)(C)C(=O)N1CCN(C(=O)Nc2ccn(-c3ccc(CN4CCC(N)CC4)cc3)c(=O)n2)CC1` [Compound 364, hydrochloride salt], the values for the IC50 in assay [1] (% inhibition @ 1 μM) and in assay [2] (% inhibition @ 1 μM) were < 0.5 µM and > 1 µM, respectively.

For `CC(C)(N)C(=O)N1CCN(C(=O)Nc2ccn(-c3ccc(CN4CC(CCN)(C(=O)O)C4)cc3)c(=O)n2)CC1` [Compound 369, hydrochloride salt], the IC50 in assay [1] (% inhibition @ 1 μM) and in assay [2] (% inhibition @ 1 μM) was > 1 µM in each case.

On to `CC(C)(N)C(=O)N1CCN(C(=O)Nc2ccn(-c3ccc(CN4CCC(F)(F)CC4)cc3)c(=O)n2)CC1` [Compound 383], for which the IC50 in assay [1] (% inhibition @ 1 μM) and in assay [2] (% inhibition @ 1 μM) was > 1 µM throughout.

The values are drawn from patent US12503452B2 (Curza Global, LLC, priority 2019, dated 2025).
